Measurements reported in US20250243344A1, “COMPOUND, RUBBER BLEND CONTAINING THE COMPOUND, VEHICLE TIRE COMPRISING THE RUBBER BLEND IN AT LEAST ONE COMPONENT, PROCESS FOR PREPARING THE COMPOUND, AND USE OF THE COMPOUND AS AN ANTI-AGING AGENT AND/OR ANTIOXIDANT” (Continental Reifen Deutschland GmbH, priority 2022, published 2025).

Experiment: Measurement of oxidation induction time (OIT) by DSC
Conditions: for Time at 180° C. (time to oxidation, oxidation induction time): isothermal 180° C., with liquid polyisoprene LIR-50, O2 atmosphere 50 ml/min, DSC peak
Protocol: The compound of formula III) was investigated under laboratory conditions for its potential protective effect as an aging stabilizer by measurement of the oxidation induction time.
To this end the compounds of formula III) and 6PPD in each case together with a polymer (liquid synthetic polyisoprene (IR), LIR-50, Kuraray, weight average molecular weight distribution Mw=54 000 g/mol, glass transition temperature Tg=−63° C.) were heated at constant temperature (180° C.) until onset of oxidation (start temperature 35° C., heating to 170° C. at a heating rate of 20 K/min (kelvin per minute), heating to 180° C. at a heating rate of 1 K/min; purge gas: nitrogen (N2), volume flow 50 ml/min).
The specimen was kept under isothermal conditions at 180° C. under an N2 atmosphere for 5 minutes and the atmosphere was then switched to an O2 atmosphere (volume flow 50 ml/min).
Oxidation was determined via a peak using DSC (differential scanning calorimetry).
The time in minutes to oxidation was measured.

SMILES	Time at 180° C. (time to oxidation, oxidation induction time)	antioxidant effect compared to 6PPD (at 180° C., taking into account measurement accuracy of ± 10 minutes)
CC(C)CC(C)Nc1ccc(Nc2ccccc2)cc1 (stereo not drawn) [Formula 6PPD, N-(1,3-dimethylbutyl)-N′-phenyl-p-phenylenediamine, reference compound]	116 ± 10 min	
CC(C)CC(C)Nc1ccc2[nH]c3c(c2c1)CCCC3 (stereo not drawn) [Formula III), 6-(1,3-dimethylbutylamino)-2,3,4,9-tetrahydro-1H-carbazole]	119 ± 10 min	comparable antioxidant effect to 6PPD
